What was measured:
Format in all cases: in vivo, rat
[1] = tested on: rats subjected to embolic middle cerebral artery occlusion; assay: Foot-fault test after embolic MCA occlusion
Protocol: Male Wistar rats weighing 320 to 380 g were used in the present study. The middle cerebral artery (MCA) was occluded by placement of an embolus at the origin of the MCA.
Ischemic rats (n=9) were treated with the same volume of tap water as a control group. Functional tests were performed and body weight was measured before ischemia and at 4, 7, 14, 21, and 28 days after onset of MCA occlusion. All rats were killed 28 days after MCA occlusion. […] These rats were killed 1 hour after the last treatment for measurements of brain levels of cGMP. […] Experiments were also performed to examine brain PDE5, nonischemic rats and ischemic rats were killed at 2, 4, 24, 48, and 168 hours after the onset of ischemia (n=3 for each time point). Reverse transcription (RT)-polymerase chain reaction (PCR) was performed to detect PDE5 in brain tissue.
Rats were tested for placement dysfunction of forelimbs with the modified foot-fault test before ischemia and at 4, 7, 14, 21, and 28 days after embolic ischemia. Rats were set on an elevated hexagonal grid of different sizes and placed their paws on the wire while moving along the grid. With each weight-bearing step, the paw may fall or slip between the wire. The total number of steps (movement of each forelimb) that the rat used to cross the grid was counted, and the total number of foot-faults for each forelimb was recorded.

[2] = Animal body weight loss after embolic MCA occlusion
Protocol: Male Wistar rats weighing 320 to 380 g were used in the present study. The middle cerebral artery (MCA) was occluded by placement of an embolus at the origin of the MCA. […] Ischemic rats (n=9) were treated with the same volume of tap water as a control group. Functional tests were performed and body weight was measured before ischemia and at 4, 7, 14, 21, and 28 days after onset of MCA occlusion. All rats were killed 28 days after MCA occlusion. […] These rats were killed 1 hour after the last treatment for measurements of brain levels of cGMP. […] Reverse transcription (RT)-polymerase chain reaction (PCR) was performed to detect PDE5 in brain tissue. Animals were weighed before and at 4, 7, 14, 21, and 28 days after embolic ischemia. Body weight loss is presented as a percentage of […] body weight.

[3] = tested on: nonischemic rats; assay: Localized CBF by laser-Doppler flowmetry; details: sildenafil 2 mg/kg
Protocol: Ischemic rats (n=9) were treated with the same volume of tap water as a control group. Functional tests were performed and body weight was measured before ischemia and at 4, 7, 14, 21, and 28 days after onset of MCA occlusion. All rats were killed 28 days after MCA occlusion. […] These rats were killed 1 hour after the last treatment for measurements of brain levels of cGMP. […] Reverse transcription (RT)-polymerase chain reaction (PCR) was performed to detect PDE5 in brain tissue. Relative erythrocyte flow velocity was measured by laser-Doppler flowmetry (PeriFlux PF4 flowmeter; Perimed AB) in the tissue under the laser-Doppler flowmetry probe. 13 A burr hole 1.5 mm in diameter was drawn on the skull 2 mm posterior to the bregma and 6 mm lateral to midline. 13 The dura was left intact. After the application of mineral oil onto the burr hole, the probe was laced 0.5 mm above the dural surface. […] This measurement reflects relatively localized CBF. 14 Values of flow velocities are presented as a percentage of the contralateral hemispheric values.

[4] = tested on: cerebral vessels in the ischemic penumbra; assay: Angiogenesis after MCAo, combination study (BrdU endothelial cells, three-dimensional vessel analysis); details: vs control MCAo group
Protocol: (§1) Male Wistar rats (n=32) were subjected to middle cerebral artery occlusion (MCAo) and were randomized with 8 rats in four treatment groups, with treatment initiated 1 day after stroke. Groups included: 1) phosphate buffered saline (PBS); 2) subtherapeutic DETA-NONOate (NN) at a dose of 0.4 mg/kg (IP); 3) subtherapeutic hMSCs (1×10^6 cells-iv); and 4) combination subtherapeutic NN and hMSCs. Functional outcome measurements consisted of a Neurologic Severity Scale (18 point scale) (NSS) and the Adhesive Removal Test performed prior to stroke, immediately before treatment and at 7 and 14 days after treatment. […] However, there was an overall hMSC effect on NSS at 14 days.
Enlarged and thin walled vessels are termed “mother” vessels and have been found under conditions of cerebral ischemic angiogenesis.
FIGS. 11B and C are computer generated three-dimensional images derived from the original images. Different colors in FIG. 11B represent individual vessels, which were not connected to each other. Green and red colors in FIG. 11C code for diameter of blood vessels less then 7.5 μm (red) and larger then 7.5 μm (green), respectively. […] Enlarged vessels can develop into capillaries after ischemia.

[5] = tested on: rats subjected to middle cerebral artery occlusion (MCAo); assay: Volume of cerebral infarction after MCAo, combination study; details: treatment 1 day after MCAo; NN 0.4 mg/kg IP, hMSCs 1×10^6 cells iv; no significant reduction vs PBS
Protocol: as §1
No significant reduction of volume of ischemic damage was detected in rats with hMSC (30.7±6.2%) or NONOate ([…]) and combination hMSCs with NONOate (28.7±6.7%) treatment, compared with control rats subjected to MCAo with PBS ([…]), hMSCs were identified immunohistochemically using an antibody specific for human chromosomes (MAB1281). Within the brain tissue, cells derived from hMSCs were characterized by MAB1281 staining. No MAB1281 positive cells were found in the non-hMSCs treated rats. MSCs identified by MAB1281 survived and were distributed throughout the damaged brain of recipient rats. […] The vast majority of MAB1281 positive hMSCs were located in the ischemic boundary zone.

[6] = tested on: rats subjected to middle cerebral artery occlusion (MCAo); assay: Adhesive Removal Test after MCAo, combination study; details: treatment 1 day after stroke; NN 0.4 mg/kg IP, hMSCs 1×10^6 cells iv; vs control
Protocol: as §1

[7] = Sildenafil 2 mg/kg, 2 h group, Before Ischemia (baseline)
[8] = Sildenafil 2 mg/kg, 24 h group, Before Ischemia (baseline)
[9] = Sildenafil 5 mg/kg, 2 h group, Before Ischemia (baseline)

## CCCc1nn(C)c2c(=O)[nH]c(-c3cc(S(=O)(=O)N4CCN(C)CC4)ccc3OCC)nc12 [Sildenafil]
[1]; Sildenafil 2 mg/kg, 2 h, 4 d after ischemia
  % of Foot-Faults: 22.81 ± 3.1%
[1]; Sildenafil 2 mg/kg, 2 h, 7 d
  % of Foot-Faults: 15.2 ± 1.6 %
[1]; Sildenafil 2 mg/kg, 2 h, 14 d
  % of Foot-Faults: 13.2 ± 1.2 %
[1]; Sildenafil 2 mg/kg, 2 h, 21 d
  % of Foot-Faults: 9.1 ± 1.5 %
[1]; Sildenafil 2 mg/kg, 2 h, 28 d
  % of Foot-Faults: 8.2 ± 1.4%
[1]; [7]
  % of Foot-Faults: 1.1 ± 0.01%
[1]; Sildenafil 2 mg/kg, 24 h, 4 d
  % of Foot-Faults: 25.3 ± 3.8%
[1]; Sildenafil 2 mg/kg, 24 h, 7 d
  % of Foot-Faults: 14.4 ± 1.0 %
[1]; Sildenafil 2 mg/kg, 24 h, 14 d
  % of Foot-Faults: 10.0 ± 0.5 %
[1]; Sildenafil 2 mg/kg, 24 h, 21 d
  % of Foot-Faults: 9.0 ± 0.5 %
[1]; Sildenafil 2 mg/kg, 24 h, 28 d
  % of Foot-Faults: 5.3 ± 0.8 %
[1]; [8]
  % of Foot-Faults: 1.03 ± 0.03%
[1]; Sildenafil 5 mg/kg, 2 h, 4 d
  % of Foot-Faults: 17.9 ± 2.9%
[1]; Sildenafil 5 mg/kg, 2 h, 7 d
  % of Foot-Faults: 16.6 ± 1.4 %
[1]; Sildenafil 5 mg/kg, 2 h, 14 d
  % of Foot-Faults: 14.6 ± 2.1 %
[1]; Sildenafil 5 mg/kg, 2 h, 21 d
  % of Foot-Faults: 9.5 ± 1.6 %
[1]; Sildenafil 5 mg/kg, 2 h, 28 d
  % of Foot-Faults: 7.6 ± 1.4%
[1]; [9]
  % of Foot-Faults: 1.02 ± 0.02%
[2]; Sildenafil 2 mg/kg, 2 h, 4 d
  % of Preischemic Body Weight: 81.8 ± 2.3%
[2]; Sildenafil 2 mg/kg, 2 h, 7 d
  % of Preischemic Body Weight: 86.6 ± 2.5 %
[2]; Sildenafil 2 mg/kg, 2 h, 14 d
  % of Preischemic Body Weight: 89.6 ± 4.7 %
[2]; Sildenafil 2 mg/kg, 2 h, 21 d
  % of Preischemic Body Weight: 98.2 ± 3.7 %
[2]; Sildenafil 2 mg/kg, 2 h, 28 d
  % of Preischemic Body Weight: 105.2 ± 3.0 %
[2]; [7]
  % of Preischemic Body Weight: 100%
[2]; Sildenafil 2 mg/kg, 24 h, 4 d
  % of Preischemic Body Weight: 86.9 ± 0.2%
[2]; Sildenafil 2 mg/kg, 24 h, 7 d
  % of Preischemic Body Weight: 84.9 ± 1.8 %
[2]; Sildenafil 2 mg/kg, 24 h, 14 d
  % of Preischemic Body Weight: 89.2 ± 2.6 %
[2]; Sildenafil 2 mg/kg, 24 h, 21 d
  % of Preischemic Body Weight: 99.5 ± 2.0 %
[2]; Sildenafil 2 mg/kg, 24 h, 28 d
  % of Preischemic Body Weight: 107.2 ± 2.5 %
[2]; [8]
  % of Preischemic Body Weight: 100%
[2]; Sildenafil 5 mg/kg, 2 h, 4 d
  % of Preischemic Body Weight: 84.6 ± 1.8%
[2]; Sildenafil 5 mg/kg, 2 h, 7 d
  % of Preischemic Body Weight: 81.8 ± 2.5 %
[2]; Sildenafil 5 mg/kg, 2 h, 14 d
  % of Preischemic Body Weight: 84.7 ± 3.9%
[2]; Sildenafil 5 mg/kg, 2 h, 21 d
  % of Preischemic Body Weight: 95.2 ± 3.5 %
[2]; Sildenafil 5 mg/kg, 2 h, 28 d
  % of Preischemic Body Weight: 101.3 ± 4.3%
[2]; [9]
  % of Preischemic Body Weight: 100%
[3]
  duration of significantly increased localized CBF after administration: 70 min
[3]; vs control rats
  localized CBF levels: significantly increased localized CBF levels

## NCCN(CCN)/[N+]([O-])=N/O [DETANONOate, (Z)-1-[N-(2-aminoethyl)-N-(2-ammonioethyl)aminio]diazen-1-ium-1,2-diolate]
[4]
  BrdU immunoreactive endothelial cells in enlarged vessels, ipsilateral hemisphere: significant (p<0.05) increase
[5]
  volume of ischemic damage: 32.2±62%
[6]
  Adhesive-Removal test score at 14 days: no significant improvement
